Key:
[1] = test system: sputum macrophages from COPD patients; experiment: Cytokine production in LPS-treated sputum macrophages from COPD patients; assay type: cell-based, human
Protocol: Patients with COPD inhaled a nebulised solution of 3% (w/v) hypertonic saline using an ultrasonic nebuliser (Devilbiss, Carthage, Mo.) with tidal breathing for 5 min. This procedure was repeated a maximum of three times until enough sputum was obtained. The sputum samples were homogenized and mixed vigorously using a vortex mixer in 0.02% v/v dithiothreitol (DTT) solution. The samples were re-suspended in PBS (40 mL) followed by centrifugation at 1500 rpm at 4° C. for 10 min to obtain sputum cell pellets. The pellets were washed with PBS (40 mL). The sputum cells were then re-suspended in 4 mL macrophage serum-free medium (macrophage-SFM, Life technologies, containing 20 U/mL penicillin, 0.02 mg/mL streptomycin and 5 μg/mL amphotericin B) and seeded on high bound 96-well plate, followed by incubation for 1 h at 37° C. and at 5% CO2 to allow the macrophages to attach to the bottom of the plate. The cells on the plate were washed with fresh macrophage-SFM (200 μL/well) to remove neutrophils and other contaminated cells. The adherent cells (mainly sputum macrophages) on the plate were used for further analysis. Sputum inductions were conducted in Quintiles Drug Research Unit at Guys Hospital and ethics approval and written informed consent was obtained by Quintiles.
Where appropriate, 1 μL of a solution containing either the test compound or reference article at the stated concentrations (either 0.1 μg/mL, 0.01 μg/mL, or 0.001 μg/mL) or alternatively 1 μL of DMSO as the vehicle control was added to each well (200 μL in media) and the cells were incubated for 2 h. The cells were stimulated with LPS solution (50 μL, final concentration: 1 μg/mL) and incubated for 18 h at 37° C. and 5% CO2. The supernatant was then collected and kept at −80° C. Suitable luminex kits were used to measure the selected analytes. After thawing the supernatant, the magnetic antibody beads were multiplexed and incubated in a 96-well plate with standard, background solution or the appropriate volume of sample overnight with shaking at 4° C. After washing twice with 200 μL of wash buffer provided by the kit per well using a magnetic plate washer, the beads were incubated for 1 h at RT with the biotin conjugated antibody solution provided by the kit with shaking. Streptavidin solution was added for 30 min with shaking at RT. After washing with 200 μL wash buffer per well, the beads were resuspended in sheath fluid (150 μL) and analyzed immediately. The level of each analyte in the supernatant was calculated using Xcel Fit software with a 4 or 5-parameter equation using each standard curve. The inhibitions of each cytokine production were calculated at each concentration by comparison with vehicle control.

CXCL1 (KC) in BALF = experiment: Cigarette smoke model: CXCL1 (KC) in BALF; assay type: in vivo, A/J mice; conditions: mice; for CXCL1 in BALF / CXCL1 in BALF, % inhibition: tobacco smoke
Protocol: A/J mice (males, 5 weeks old) were exposed to cigarette smoke (4% cigarette smoke, diluted with air) for 30 min/day for 11 days using a Tobacco Smoke Inhalation Experiment System for small animals (Model SIS-CS; Sibata Scientific Technology, Tokyo, Japan). Test substances were administered intra-nasally (35 μL of solution in 10% DMSO/PBS) once daily for 3 days after the final cigarette smoke exposure. At 12 h after the last […], each of the animals was anesthetized, the trachea cannulated and bronchoalveolar lavage fluid (BALF) was collected. The numbers of alveolar macrophages and neutrophils were determined by FACS analysis (EPICS® ALTRA II, Beckman Coulter, Inc., Fullerton, Calif., USA) using anti-mouse MOMA2 antibody (macrophage) or anti-mouse 7/4 antibody (neutrophil). BALF was centrifuged and the supernatant was collected. The level of keratinocyte chemoattractant (KC; CXCL1) in BALF was quantitated using a Quantikine® mouse KC ELISA kit (R&D systems, Inc., Minneapolis, Minn., USA).

`Cc1ccc(-n2nc(C(C)(C)C)cc2NC(=O)Nc2ccc(OCc3ccnc(Nc4cnccn4)c3)c3ccccc23)cc1` [Example 1, 1-(3-(tert-Butyl)-1-(p-tolyl)-1H-pyrazol-5-yl)-3-(4-((2-(pyrazin-2-ylamino)pyridin-4-yl)methoxy)naphthalen-1-yl)urea] was tested, and the “inhibition of pro-inflammatory cytokine production in sputum macrophage compared with fluticasone propionate” value [1] was “higher efficacy”, the IC50 ([1]; Homo sapiens, Macrophage, IL-6, sputum macrophages from COPD patients) was 28 nM and the inhibition at 0.1 µg/mL ([1]; Homo sapiens, Macrophage, read-out: E-max (maximum inhibition), IL-6 production in LPS-treated sputum macrophages) was 60%. The “CXCL1 in BALF” value (CXCL1 (KC) in BALF; 0.07 μg/mouse) was 14.47 pg/mL, the “CXCL1 in BALF, % inhibition” value (CXCL1 (KC) in BALF; 0.07 μg/mouse) was 14.6% and the “CXCL1 in BALF” value (CXCL1 (KC) in BALF; 0.7 μg/mouse) was 12.49 pg/mL. The “CXCL1 in BALF, % inhibition” value (CXCL1 (KC) in BALF; 0.7 μg/mouse) was 34.9%, the “CXCL1 in BALF” value (CXCL1 (KC) in BALF; 7 μg/mouse) was 9.03 pg/mL and the “CXCL1 in BALF, % inhibition” value (CXCL1 (KC) in BALF; 7 μg/mouse) was 70.3%. The “tobacco smoke induced CXCL1 (KC) production in BALF (in words)” value (CXCL1 (KC) in BALF) was “inhibited”.

Reference: patent publication US11142515B2, “Pyrazolyl-ureas as kinase inhibitors” (RESPIVERT LIMITED, priority 2014, dated 2021)
